Consider three compounds from US20250101052A1, “COMPOUND FOR EGFR KINASE INHIBITOR, COMPOSITION, AND USE THEREOF” (INNOVATION INSTITUTE FOR ARTIFICIAL INTELLIGENCE IN …, priority 2021, published 2025).

A value given as a limit tells only on which side of the number the result lay.

A short description of series [1]: Stability testing of liver microsomes, human. The class given is in vitro ADME. The following applies: for CLint scaled at 1 µM / half-life at 1 µM: pH 7.41, human liver microsomes. How it is done: 1. 100 mM K-buffer was preheated with 5 mM MgCl2 with a pH value of 7.41.
2. Preparation of testing solution
0.5 mM solution A: 5 μL of the 10 mM compound stock solution was added for reference to 95 μL of ACN.
1.5 μM microsome solution (0.75 mg/mL): 1.5 μL of a 500 μM solution and 18.75 μL of 20 mg/mL liver microsomes were added to 479.75 μL of K/Mg-buffer.
3. The K/Mg-buffer NADPH solution (6 mM, 5 mg/mL) was prepared.
4. […] of human, monkey, and mouse liver microsomes with a 0.75 mg/mL concentration were added to detection plates at different time points (0, 15, 30, 45, and 60 minutes).
5. Pre-incubation was conducted at 37° C. for 5 minutes.
6. At 0 min, before 15 μL of the NADPH stock solution (6 mM) was added, 150 μL of ACN containing IS was added.
NADPH was dissolved in the K/mg buffer to prepare a 6 mm and 5 mg/mL NADPH stock solution.
7. At other time points, 15 μL of the NADPH stock solution (6 mM) was added to the well for starting the reaction and timing.
8. 150 μL of ACN containing IS was added to the corresponding plate wells at 15 min, 30 min, 45 min, and 60 min, respectively, and the reaction was stopped.
9. After quenching, shaking well was conducted for 10 minutes (600 rpm), and centrifugation was conducted at 6000 rpm for 15 minutes.
10. 80 μL of the supernatant in each well was transferred to a 96-well sample plate (containing 140 μL of pure water) for LC/MS analysis.

Series [2] has as its system BaF3-EGFR^del19/C797S cells. The series can be described thus: BaF3 cell proliferation inhibition experiment (CCK-8). It counts as cell-based. The following applies: Mus musculus, BaF3, 72 h, read-out: BaF3-EGFR^del19 /C797S (IC50 nM).
Series [3] concerns BaF3-EGFR^L858R/C797S cells. The series is described as above. It counts as cell-based. Particulars: Ba/F3 EGFR-L858R, 72 h, read-out: BaF3-EGFR^L858R/C797S (IC50 nM).

As usually defined, the CLint scaled is a measure of how fast metabolising enzymes remove a compound, apart from limits set by blood flow. A high value points to faster metabolism. What is called half-life is the time in which the quantity being followed falls by half. Lower therefore signals rapid decline. Turning to `CCc1cc(Nc2ncc(Cl)c(Nc3ccc(C)c(C)c3P(C)(C)=O)n2)c(OC)cc1N1CCC(N2CCN(C)CC2)CC1` [Comparative Compound A, reference compound], in series [1], the CLint scaled at 1 µM amounted to 49.8 mL/min/kg and the half-life at 1 µM is 27.8 min.

Regarding `CCc1cc(Nc2ncc(Cl)c(Nc3ccc(C)c(C)c3P(C)(C)=O)n2)c(OC)cc1N1CC2(CCN(C)CC2)C1` [Compound 24, (6-((5-Chloro-2-((5-ethyl-2-methoxy-4-(7-methyl-2,7-diazaspiro[3.5]non-2-yl)phenyl)amino)pyrimidin-4-yl)amino)-2,3-dimethylphenyl)dimethylphosphine oxide], the “stability in liver microsomes (in words)” value in series [1] (humans) is reported as “good stability”. For the same compound, in series [1], the CLint scaled at 1 µM is below 9.6 mL/min/kg and the half-life at 1 µM was above 145 min. Further, the IC50 in series [2] worked out at 202 nM. Besides, the IC50 in series [3] was 158 nM.

For the compound `CCc1cc(Nc2ncc(Cl)c(Nc3ccc(C)c(C)c3P(C)(C)=O)n2)c(OC)cc1N1CCC(N2C[C@H]3CC[C@@H](C2)N3C)CC1` [Compound 51, (6-((5-chloro-2-((5-ethyl-2-methoxy-4-(4-((1R,5S)-8-methyl-3,8-diazabicyclo[3.2.1]octan-3-yl)piperidin-1-yl)phenyl)amino)pyrimidin-4-yl)amino)-2,3-dimethylphenyl)dimethylphosphine oxide], the IC50 stood at 146 nM in series [2] and 116 nM in series [3].
